Assay results reported in US7371776B2, “Methods and compositions for treating cancer” (Mars, Incorporated, priority 2004, dated 2008).

Columns and labels:
Type in all cases: cell-based, human
MCF-7 cells = test: Crystal violet cellular proliferation assay; details: MCF-7 (wild type p53, ER-positive); 100 μg/mL
Experimental: (§1) Human breast cancer cell lines MDA MB-231, MDA MB-436, MD MB-468, SKBR-3 and MCF-7 were obtained from the Lombardi Comprehensive Cancer Center (LCC) Tissue Culture Shared Resource. MDA MB-231, MDA MB-436, MD MB-468 and SKBR-3 are p53-mutated estrogen receptor (ER)-negative cells. MDA MB-231 also contains a mutation in the K-ras oncogene. The MCF-7 cell line is ER-positive and non-mutated for p53. The cells were grown in complete media containing DMEM (Gibco-BRL, Gaithersburg, Md.) supplemented with 10% fetal bovine serum (FBS) (Quality Biological, Gaithersburg, Md.). In addition, media for MCF-7 contained non essential amino acids (Gibco-BRL, Gaithersburg, Md.).
(§2) One×10^3 cells per well were seeded in 96 well dishes (Coming Costar, Cambridge, Mass.). Primary cultures of HMECs, A1N4 and 184B5 cells were evaluated at two different cell densities (seeded at 1×10^3 and 2×10^3 per well). After 24 hours of cell attachment, cells in triplicate wells were treated with pentamer at a concentration of 100 μg/mL. The cells on the same plate were treated with corresponding controls: (i) media containing DMSO, and (ii) media with no additions.
(§3) Cells were treated for 1, 2, 3, 6, 8 and 10 days, but in some cases, the samples were collected at days 2, 3, 4, 7 and 10 post-treatment. Each treatment was conducted in triplicate. Samples were collected at each time point as follows: media was removed and 50 μL of crystal violet solution (0.1% of crystal violet in 0.1 M citric acid solution) was added to each well at room temperature and plates were incubated for 15 minutes, followed by washing with deionized water. Plates were dried at room temperature overnight. The following day, plates were destained by adding 100 μL of 0.1 M sodium citrate solution into each well. Plates were incubated for one hour. The optical density (OD) of samples was read at 550 nm on an Ultramark Microplate Imagining System (BioRad, Philadelphia, Pa.). The experiment was repeated twice resulting in an average of nine measurements per sample. Statistical significance was determined using the t test analysis.

MDA MB-231 cells = test: Crystal violet cellular proliferation assay; details: 100 μg/mL, ten days after treatment
Experimental: as §1, §2, §3

MDA MB-436 cells = test: Crystal violet cellular proliferation assay; details: 100 μg/mL, ten days after treatment
Experimental: as §1, §2, §3

MDA MB-468 cells = test: Crystal violet cellular proliferation assay; details: 100 μg/mL, ten days after treatment
Experimental: as §1, §2, §3

SKBR-3 cells = test: Crystal violet cellular proliferation assay; details: 100 μg/mL, ten days after treatment
Experimental: as §1, §2, §3

PKC-θ at Ser 643/676 = test: LPS multi-well plate phosphorylation screen in MDA MB-231 cells; details: 100 μg/mL, 72 hrs
From the text: (§4) Layered Protein Scanning (LPS) is a method for screening liquid protein samples in a high throughput manner using multi-well plates [Englert, C. R. et al., Cancer Res., 60: 1526-1530, 2000], and conducted by 20/20 Gene Systems, Inc., (Rockville, Md.). In short, cells are lysed and protein extract loaded into the wells of vacuum manifold and transferred through a stack of membranes. From each set of samples, up to five dot blot membranes are generated.
(§5) MDA MB-231 human breast cancer cells were treated, with or without 100 μg/mL pentamer, for 48 and 72 hours. Cells were lysed in LPS/MWP lysis buffer (20/20 Gene Systems, Inc.). Protein concentration was determined using BCA Protein Assay Kit (Pierce, Rockford, Ill.). Ten and 20 μg of each protein sample was loaded in duplicate onto Bio-Dot Microfiltration Apparatus (BioRad, Philadelphia, Pa.) and transferred through a 5-membrane stack as recommended by the manufacturer (20/20 Gene Systems). After the transfer, all of the membranes were biotinylated in 1 mg/mL EZ-Link Sulfo-NHS-Biotin solution in 1×PBS for 10 minutes at room temperature (Pierce).
(§6) Membranes were incubated overnight at 4° C. with the antibodies shown in Table 1 (1:500 or 1:1000 dilution). The following day, membranes were washed in Tris-buffered saline with Tween 20 (0.1%) (TBST buffer) and incubated for 60 minutes at room temperature in a mixture of FluoroLink Cy 5-labeled Streptavidin (1:500, Amersham) and Fluorescein-labeled secondary anti-mouse or anti-rabbit antibody (1:2,000, Molecular Probes, Eugene, Oreg.), followed by washes in TBST. Membranes were dried and scanned on a Typhoon scanner (Amersham), and obtained images were analyzed with InageQuant software (Amersham). Data were plotted in Excel and statistically analyzed in JMP (SAS Institute, Inc., Cary, N.C.). Hierarchical clustering analysis was performed to evaluate segregation of samples into control and treated groups.

p53 [1] = test: as above; details: 100 μg/mL
From the text: as §4, §5, §6

[2] = test system: pRb at Ser 795 and Ser807/811; test: as above; details: 100 μg/mL
From the text: as §4, §5, §6

p53 [3] = test: High resolution profiling (P-FILM) of p53 in MDA MB-231 cells; details: 100 μg/mL
Experimental: Both p53 and pRb contain multiple phosphorylation sites, and evaluating each site separately provides a more accurate indication of each protein's potential function. Therefore, a high resolution functional profiling of the proteins was performed using P-FILM technology (20/20 Gene Systems, Inc.).
The same protein samples as those used for PDVF membrane blotting were used. Ten μg of each protein sample of MDA MB-231 cells, and in some cases MDA MB-468 and MCF-7 cells, treated with 100 μg /mL of pentamer or DMSO-treated controls, were separated by PAGE on 4-20% gradient gels (BioRad). Proteins were transferred on a stack of ten membranes, according to manufacturer's instructions (20/20 Gene Systems, Inc.). The membranes were probed with antibodies recognizing total and phosphorylated p53 (p53Ser6, Ser9, Ser15, Ser20, Ser37, Ser46 and Ser392) at 1:1000 dilution as recommended by the manufacturer (Cell Signaling). The secondary antibody used in all cases was anti-rabbit polyclonal 1:2000 (Amersham). Signals were visualized on BIOMAX MR film (Kodak). The profiling of pRb was done using anti-phospho pRb (Ser780, Ser 795 and Ser 807/811) and anti-pRb polyclonal antibody (Cell Signaling) at a 1:1000 dilution. The secondary antibody used in all cases was anti-rabbit at 1:2000 dilution (Amersham). Image analysis was performed with Kodak 1D image analysis software. Background corrected intensity values were normalized for loading by using GAPDH intensities. Numerical analysis was performed in Excel.

Oc1cc(O)c2c(c1)O[C@H](c1ccc(O)c(O)c1)[C@H](O)[C@H]2c1c(O)cc(O)c2c1O[C@H](c1ccc(O)c(O)c1)[C@H](O)[C@H]2c1c(O)cc(O)c2c1O[C@H](c1ccc(O)c(O)c1)[C@H](O)[C@H]2c1c(O)cc(O)c2c1O[C@H](c1ccc(O)c(O)c1)[C@H](O)[C@H]2c1c(O)cc(O)c2c1O[C@H](c1ccc(O)c(O)c1)[C@H](O)C2 [pentamer, pentameric procyanidin]
growth inhibition (MCF-7 cells): 5.6 fold
growth inhibited, in comparison to DMSO-treated controls (MDA MB-231 cells): 5 fold
growth inhibited, in comparison to DMSO-treated controls (MDA MB-436 cells): 4.1 fold
growth inhibited, in comparison to DMSO-treated controls (MDA MB-468 cells): 4 fold
growth inhibited, in comparison to DMSO-treated controls (SKBR-3 cells): 5.5 fold
phosphorylation of PKC-θ at Ser 643/676 decreased (PKC-θ at Ser 643/676): 49%
phosphorylation of p53 residues Ser6, Ser9, Ser20 and Ser15 (p53 [1]; LPS): not significantly affected
phosphorylation of p53 (antibody mix at Ser37, 46 and 392) decreased (p53 [1]; post treatment, densitometry vs control): 36%
phosphorylation of pRb at Ser 795 and Ser807/811 decreased ([2]; 48 hrs): 36%
phosphorylation of pRb at Ser 795 and Ser807/811 decreased ([2]; 72 hrs): 40%
percentage of p53 phosphorylated at Ser392 decreased, compared to untreated controls (p53 [3]): 53%
phosphorylation of p53 Ser15 residue (p53 [3]; 48 h): slight decreases
phosphorylation of p53 Ser46 (p53 [3]; 48 h): slight decreases
phosphorylation of p53 Ser20 residue (p53 [3]; 48 hrs): decreased
levels of endogenous p53 expression (p53 [3]; 48 hrs, not significant by densitometry): slightly decreased
phosphorylation of p53 Ser20 residue (p53 [3]; 72 hrs): not affected
phosphorylation of p53 Ser392 residue (p53 [3]; both 48 and 72 hrs): significant dephosphorylation
